# Key:
# MiaPACA = assay: Growth inhibition, SRB assay, MiaPACA; type: cell-based; details: Homo sapiens, MIA PaCa-2, wild-type BRCA1/2, 48 hours
# Text: (§1) Table 2 refers to the growth inhibitory effect of COMP, olaparib and cisplatin (CDDP) in a panel of human immortalized breast (T47D, MCF-7, MDA-MB-231, MDA-MB-468, SK-BR-3 and HCC1937), ovarian and endocervical (OCVAR, SKOV-3, […],IGROV-1 and HeLa), pancreatic (PANC-1 and MIAPACA), neuroblastoma (SHSY-5Y), lung (NCI-H460), prostate (VCaP) melanoma (A375 and SK-MEL-5) and glioblastoma (SF-208) cancer cells, immortalized normal MCF10a and HFF1 human cells, and patient-derived ovarian (PD-OVCA #1, #9, #41, #49 and #62) cancer cells. […] Data are mean±SEM (n=5).
# (§2) In an embodiment, IC50 values were determined by Sulforhodamine B (SRB) or MTS [3-(4,5-dimethylthiazol-2-yl)-5-(3-carboxymethoxyphenyl)-2-(4-sulfophenyl)-2H-tetrazolium] assay in immortalized and PD-OVCA cells, respectively. Cancer cells were plated in 96-well plates and incubated for 24 hours. Cells were then exposed to serial dilutions of compounds for 48 hours. The solvent DMSO corresponding to the maximum concentration used in these assays (0.025%) was included as control. Results are the mean±S.E.M. of 3-5 independent experiments.
# [1] = system: triple-negative breast cancer and ovarian cancer cells (MDA-MB-231, IGROV-1, HCC1937); assay: Colony-formation assay; type: cell-based, human; details: 8 days (MDA-MB-231 and IGROV-1), 16 days (HCC1937) of treatment
# Method: FIG. 4 illustrates the effect of COMP on (A-B) colony formation of cancer cells after 8 days (MDA-MB-231 and IGROV-1) and 16 days (HCC1937) of treatment. In FIG. 4A, representative experiments are shown.
# In an embodiment, colony-formation assay was performed.
# Vcap = assay: Growth inhibition, SRB assay, Vcap; type: cell-based; details: Homo sapiens, wild-type BRCA1/2, 48 hours
# Text: as §1, §2
# SK-MEL-5 = assay: Growth inhibition, SRB assay, SK-MEL-5; type: cell-based; details: Homo sapiens, SK-MEL-5, wild-type BRCA1/2, 48 hours
# Text: as §1, §2
# HCC1937 (5382insC) = assay: Growth inhibition, SRB assay, HCC1937; type: cell-based, human; details: Homo sapiens, HCC1937, 48 h
# Text: as §1, §2
# MDA-MB-231 = assay: Growth inhibition, SRB assay, MDA-MB-231; type: cell-based, human; details: Homo sapiens, MDA-MB-231, 48 h
# Text: as §1, §2
# [2] = system: PD-OVCA#41 (mutBRCA2: c. 3707dupA); assay: Growth inhibition, MTS assay, PD-OVCA#41; type: cell-based, human; details: Homo sapiens, PD-OVCA#41, benign mutant BRCA1 with pathogenic mut BRCA2, 48 hours
# Text: as §1, §2
# [3] = system: triple-negative breast cancer and ovarian cancer cells; assay: Apoptosis by flow cytometry (FITC-Annexin V/PI); type: cell-based, human; details: 6 and 12 μM, 48 hours
# Method: Cell cycle phases were analysed by flow cytometry using propidium iodide (PI) and quantified using the FlowJo software. Apoptosis and ROS were analysed by flow cytometry using FITC-Annexin V/PI and 2′,7′-dichlorodihydrofluorescein diacetate (H2DCFDA) respectively.
# MDA-MB-468 = assay: Growth inhibition, SRB assay, MDA-MB-468; type: cell-based, human; details: Homo sapiens, MDA-MB-468, 48 h
# Text: as §1, §2
# [4] = system: IGROV-1 (mutBRCA1 280delA; mutBRCA2 3320del1); assay: Growth inhibition, SRB assay, IGROV-1; type: cell-based, human; details: Homo sapiens, IGROV-1, 48 h
# Text: as §1, §2
# BRCA1-BARD1 interaction = assay: Co-IP of BRCA1-BARD1 interaction; type: cell-based, human; details: 12 and 20 μM; 18 hours (MDA-MB-231, HCC1937), 24 hours (IGROV-1)
# Method: (FIGS. 11A-D) Co-IP was performed in MDA-MB-231 (FIG. 11A), HCC1937 (FIG. 11B) and IGROV-1 (FIG. 11C) cells treated with 12 and 20 μM COMP for 18 hours (in MDA-MB-231 and HCC1937 cells) and 24 hours (in IGROV-1 cells). Assay was performed using the Pierce classic magnetic IP and Kit followed by western blot detection. In FIGS. 11A-C, representative immunoblots are shown; whole-cell lysate (Input).
# [5] = Body and organ weight of treated xenograft mice; type: in vivo; details: 2 mg/kg intraperitoneal, seven administrations; compared to vehicle
# Method: FIG. 14 illustrates the in vivo antitumor activity of COMP. C57BL/6-Rag2−/−IL2rg−/− xenograft mice, carrying IGROV-1 cells, were treated with vehicle (control), or 2 mg/kg of COMP or 50 mg/kg of olaparib by intraperitoneal injection three times per week (seven administrations in total). The treatment was initiated when palpable tumors were established (^˜100 mm3). […] In FIGS. 14A-C, data are mean±SEM, n=13 animals.
# BRCA1 = BRCA1 cellular localization by immunofluorescence; type: cell-based, human; details: 12 μM, 48 hours; MDA-MB-231, HCC1937 and IGROV-1 cells
# Method: FIG. 10 illustrates the effect of 12 μM COMP on (A) γH2AX expression levels and on (FIG. 10B) γH2AX and RAD51 foci formation, and BRCA1 foci formation and cellular localization after 48 hours of treatment. […] FIG. 10B are representative images generated using Fiji software (scale bar=100 μm; 400 × magnification).
structure (smiles),measurement,setting,value
"CC[C@H]1CN(C)C2Cc3c([nH]c4ccccc34)/C(=N/Nc3ccc(Br)cn3)C[C@@H]1[C@@H]2C(=O)OC [COMP, methyl (5R,6S,14S,E)-8-(2-(5-bromopyridin-2-yl) hydrazineylidene)-5-ethyl-3-methyl-2,3,4,5,6,7,8,9-octahydro-1H-2,6-methanoazecino [5,4-b]indole-14-carboxylate]",IC50,MiaPACA,4.5 ± 0.4 µM
same,colony-forming ability of cancer cells,[1],significantly reduced
same,IC50,Vcap,11.7 ± 3.4 µM
same,IC50,SK-MEL-5,5.65 ± 0.95 µM
same,IC50,"HCC1937 (5382insC); HCC1937, BRCA1 mutant, 48 hours (second Table 2)",5.2 µM
same,IC50,"HCC1937 (5382insC); HCC1937, mutant BRCA1, 48 hours",5.2 ± 1.3 µM
same,IC50,"MDA-MB-231; MDA-MB-231, BRCA1 loss of heterozigoty, 48 hours",5 ± 1.4 µM
same,IC50,"MDA-MB-231; MDA-MB-231, BRCA1 loss of heterozygosity, 48 hours (second Table 2)",5 µM
same,IC50,[2],14.1 ± 0.9 µM
same,apoptotic cell death (Annexin-V-positive cells),[3],significant increase in apoptotic cell death
same,IC50,"MDA-MB-468; MDA-MB-468, BRCA1 loss of heterozigoty, 48 hours",4.4 ± 0.8 µM
same,IC50,"MDA-MB-468; MDA-MB-468, BRCA1 loss of heterozygosity, 48 hours (second Table 2)",4.4 µM
same,IC50,"[4]; IGROV-1, mutant BRCA1/2, 48 hours",4.6 ± 1.5 µM
same,IC50,"[4]; Igrov-1, BRCA1 mutant, 48 hours (second Table 2)",4.6 µM
same,BRCA1-BARD1 interaction (BARD1 co-immunoprecipitated with BRCA1),BRCA1-BARD1 interaction,disruption of the BRCA1-BARD1 interaction
same,body weight,[5],no significant variation
same,"organs weight (spleen, liver, heart and kidneys)",[5],no significant variation
same,BRCA1 cellular localization,BRCA1,triggered the nucleocytoplasmic translocation of BRCA1

# Source: patent publication US20250345317A1, “New pharmaceutical compounds, methods and uses thereof” (BBIT-THERAPEUTICS, LDA., priority 2020, published 2025)
